# Measurements taken from paper PMC3610872, “Full and Partial Agonists of Thromboxane Prostanoid Receptor Unveil Fine Tuning of Receptor Superactive Conformation and G Protein Activation” (PLoS ONE, 2013).
# Changes are numbered by the printed parent chain. Marks after values point to notes of the source that are not given here.
# Key:
# [1] = biological target: T1, WT human TP receptor (Homo sapiens, UniProt P21731); test: [3H]SQ29,548 radioligand binding (mixed-type and heterologous competition), WT receptor; conditions: HEK293 cells, value ±%CV
# T1 construct: expressed in transfected cells; host or cells: HEK293
# T1 sequence (P21731 1-343): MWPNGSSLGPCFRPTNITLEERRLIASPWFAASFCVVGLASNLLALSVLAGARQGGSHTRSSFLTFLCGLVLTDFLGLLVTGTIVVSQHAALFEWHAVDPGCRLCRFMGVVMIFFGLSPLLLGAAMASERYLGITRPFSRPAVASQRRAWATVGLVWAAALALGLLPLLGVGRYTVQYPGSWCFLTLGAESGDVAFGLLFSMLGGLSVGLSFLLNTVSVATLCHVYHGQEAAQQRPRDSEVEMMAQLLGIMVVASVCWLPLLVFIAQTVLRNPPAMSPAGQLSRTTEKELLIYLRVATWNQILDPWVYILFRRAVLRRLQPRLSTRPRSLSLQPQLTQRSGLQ
# Protocol: (§1) Receptor expression and functional activity were monitored 48 hours after transfection. […] Heterologous competition studies involved concentrations of the indicated unlabeled ligands extending from 0.1 nM to 30 µM. After 30 min incubation at 25 °C, the reaction was stopped by aspiration of the medium, cells were washed with ice-cold PBS containing 0.2% (w/v) BSA and lysed in 0.5 N NaOH. Radioactivity was measured by liquid scintillation counting. Binding data were analyzed as described in Data and Statistical Analysis. Quantification of the total labeled inositol phosphates (IP) accumulation was performed using a conventional gravity flow column chromatography, as described previously, [19]. Briefly, the day before the assay, cells were labeled with 0,5 µCi of [myo-2-^3H]inositol (17 Ci/mmol) for 18–20 hours in serum-free, inositol-free DMEM containing 20 mM HEPES buffer, pH 7.4, and 0.5% (w/v) Albumax I. The day of the assay, media was replaced with serum-free, inositol-free DMEM containing 25 mM LiCl and cells stimulated for 30 min with the indicated agonists. After removal of the medium, cells were lysed with 10 mM formic acid and lysates were applied onto an anion exchange AG 1X-8 column, formate form, 200–400 mesh. The total IP fraction was then eluted with 2 M ammonium formate/formic acid buffer at pH 5 and radioactivity determined by liquid scintillation counting. Rescue experiments were performed essentially as above, except for a 18 hours incubation step with 1 µΜof SQ29,584 followed by its removal by washing three times with ice-cold PBS containing 1 mM MgCl2 and 0.1 mM CaCl2 before starting the experiment.
# (§2) All average results are presented as mean±S.E. When indicated, ANOVA followed by post-hoc test for multiple comparisons was performed. Data from radioligand binding were evaluated by a nonlinear, least-squares curve-fitting procedure using GraphPad Prism version 4, implemented with the n-ligand m-binding site model, as described in the LIGAND computer program. Concentration-response curves were evaluated using Prism 4, which use the four parameters logistic model as described in the ALLFIT program. Parameter errors are all expressed in percentage coefficient of variation (%CV) and calculated by simultaneous analysis of at least two different independent experiments performed in duplicate or triplicate. Parameter comparison has been performed on the base of the F test for extra sum of square principle. All curves shown are computer generated.
# (§3) Thus, transfection conditions were adjusted to secure equivalent levels of receptor expression for WT and mutants as previously described, [17], [19]. […] All the experiments were conducted within this range of receptor expression, if not specified differently.
# [2] = biological target: T2, E129V mutant human TP receptor (Homo sapiens, UniProt P21731, E129V); test: [3H]SQ29,548 radioligand binding (mixed-type and heterologous competition), E129V mutant; conditions: HEK293 cells, E129V, value ±%CV
# T2 construct: expressed in transfected cells; host or cells: HEK293
# T2 sequence (P21731 1-343 E129V): T1 sequence (P21731 1-343) with E129V
# Protocol: as §1, §2, §3
# [3] = biological target: T3, E240V mutant human TP receptor (Homo sapiens, UniProt P21731, E240V); test: [3H]SQ29,548 radioligand binding (mixed-type), E240V mutant; conditions: HEK293 cells, value ±%CV
# T3 construct: expressed in transfected cells; host or cells: HEK293
# T3 sequence (P21731 1-343 E240V): T1 sequence (P21731 1-343) with E240V
# Protocol: as §1, with “Rescue experiments were performed essentially as above, except for a 18 hours incubation step with 1 µΜof SQ29,584 followed by its removal by washing three times with ice-cold PBS containing 1 mM MgCl2 and 0.1 mM CaCl2 before starting the experiment.” left out
# as §2, with “Parameter comparison has been performed on the base of the F test for extra sum of square principle. All curves shown are computer generated.” left out
# [4] = biological target: T4, E129/240V double mutant human TP receptor (Homo sapiens, UniProt P21731, E129V/E240V); test: [3H]SQ29,548 radioligand binding (mixed-type), E129/240V double mutant; conditions: HEK293 cells, no Gαq, before SQ29,548 rescue, value ±%CV
# T4 construct: expressed in transfected cells; host or cells: HEK293
# T4 sequence (P21731 1-343 E129V/E240V): T1 sequence (P21731 1-343) with E129V, E240V
# Protocol: Receptor expression and functional activity were monitored 48 hours after transfection. […] Heterologous competition studies involved concentrations of the indicated unlabeled ligands extending from 0.1 nM to 30 µM. After 30 min incubation at 25 °C, the reaction was stopped by aspiration of the medium, cells were washed with ice-cold PBS containing 0.2% (w/v) BSA and lysed in 0.5 N NaOH. Radioactivity was measured by liquid scintillation counting. Binding data were analyzed as described in Data and Statistical Analysis. Quantification of the total labeled inositol phosphates (IP) accumulation was performed using a conventional gravity flow column chromatography, as described previously, [19]. […] The total IP fraction was then eluted with 2 M ammonium formate/formic acid buffer at pH 5 and radioactivity determined by liquid scintillation counting. […]
# All average results are presented as mean±S.E. When indicated, ANOVA followed by post-hoc test for multiple comparisons was performed. Data from radioligand binding were evaluated by a nonlinear, least-squares curve-fitting procedure using GraphPad Prism version 4, implemented with the n-ligand m-binding site model, as described in the LIGAND computer program. Concentration-response curves were evaluated using Prism 4, which use the four parameters logistic model as described in the ALLFIT program. […]
compound,measurement,setting,value
"O=C(O)CCC/C=C\C[C@@H]1[C@H](CNNC(=O)Nc2ccccc2)[C@@H]2CC[C@H]1O2 [[^3H]SQ29,548, [5,6-^3H]SQ29,548]",Bmax,[1]; Gαq 3x,0.90±46 pmol/mg prot
same,Bmax,[1]; Gαq 5x,0.95±39 pmol/mg prot
same,Bmax,[1]; no Gαq cotransfection,0.44±32 pmol/mg prot
same,Bmax,[2]; Gαq 3x,0.38±21 pmol/mg prot
same,Bmax,[2]; Gαq 5x,0.39±30 pmol/mg prot
same,Bmax,[2]; no Gαq cotransfection,0.53±16 pmol/mg prot
same,Bmax,[3]; Gαq 3x,0.65±52 pmol/mg prot
same,Bmax,[3]; Gαq 5x,0.49±34 pmol/mg prot
same,Bmax,[3]; no Gαq cotransfection,0.97±31 pmol/mg prot
same,Bmax,[4],0.04±68 ^b pmol/mg prot
